Source: patent US11485987B2, “Methods for inducing bioorthogonal reactivity” (University of Delaware, priority 2015, dated 2022)
Residue numbers refer to the chain shown, from its start.

Tests used:
[1] = target: T1, APEX2 (SEQ ID NO:1) (Glycine max, UniProt Q43758, A134P/E112K/K14D/W41F); assay: Oxidation of DHT by APEX2, UV-Vis initial rates and kinetic parameters; format: biochemical; conditions: for Initial rate of oxidation of DHT by APEX2 (SEQ ID NO: 1) / Initial rate of oxidation of DHT by APEX2 (SEQ ID NO: 1) + SOD: PBS, 100 μM EDTA, first 100 s; for Initial rate of oxidation of DHT by APEX2 (SEQ ID NO: 1) + SOD: SOD 1 μM
T1 sequence (Q43758 1-250 A134P/E112K/K14D/W41F): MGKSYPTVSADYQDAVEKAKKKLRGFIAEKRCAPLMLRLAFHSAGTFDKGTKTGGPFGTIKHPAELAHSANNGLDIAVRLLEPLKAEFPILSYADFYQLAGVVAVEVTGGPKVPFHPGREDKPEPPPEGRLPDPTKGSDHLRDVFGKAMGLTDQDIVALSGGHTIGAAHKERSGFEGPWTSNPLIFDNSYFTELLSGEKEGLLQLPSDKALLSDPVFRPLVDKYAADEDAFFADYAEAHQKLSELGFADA
Description: (§1) UV-Vis and fluorescence measurements were conducted in quartz cuvettes. All reactions were conducted in phosphate buffered saline (PBS) containing 100 μM EDTA with a pH=7.4. The PBS was prepared by adding 25 mM phosphate salts (Na2HPO4 and NaH2PO4), 100 mM NaCl, 100 μM EDTA to DI water. EDTA was added to quench free metals that can oxidize DHT. The buffer was pH adjusted to 7.4 using 1 mM HCl and 1 mM NaOH. UV experiments were stirred at 25° C. in a temperature-controlled cuvette holder of the spectrophotometer. Solutions of 15 or 16 were prepared from methanol stock solutions.
15 or 16 (60 μM) from methanol stock solutions was added to PBS containing 100 μM EDTA. After 10s, APEX2 (SEQ ID NO:1) (275 nM) was dosed in and oxidation was monitored at 325 nm for 15 and 285 nm for 16 at 60s intervals (FIG. 10B-C).
16 (15 μM) DHT from methanol stock solutions was added to PBS containing 100 μM EDTA. After 10s, APEX2 (SEQ ID NO:1) (275 nM) or HRP (15 nM) was dosed in and oxidation was monitored at 285 nm at 10s intervals (FIG. 10D)
(§2) SOD (1 μM) was added to PBS containing 100 μM EDTA. 15 or 16 (60 μM) was added from methanol stock solutions. After 10s, APEX2 (SEQ ID NO:1) or F41A APEX2 (275 nM) was dosed in and oxidation was monitored at 325 nm for 15 and 285 nm for 16 at 60s intervals.
(§3) The initial rate of oxidation was calculated from the first 100 seconds after APEX2 (SEQ ID NO:1) or F41A APEX2 was added ([…]). In the assays where SOD was added, SOD (1 μM) was added to PBS containing 100 μM EDTA and 15 or 16 was dosed in. 10 seconds later, APEX2 (SEQ ID NO:1) or F41A APEX2 ([…]) was added and the rate of oxidation was calculated from the first 100 seconds after APEX2 (SEQ ID NO:1) or F41A APEX2 ([…]) addition. The initial rate of oxidation was adjusted to background oxidation of DHT in PBS with 100 μM EDTA. Kinetic parameters (Table 2) were determined using GraphPad's Prism 6 software from the data presented below (Table 3-4).

[2] = target: T2, F41A APEX2 (Glycine max, UniProt Q43758, A134P/E112K/K14D/W41A); assay: Oxidation of DHT by F41A APEX2, UV-Vis initial rates and kinetic parameters; format: biochemical; conditions: for Initial rate of oxidation of DHT by F41A APEX2 + SOD: SOD 1 μM, PBS, 100 μM EDTA, first 100 s
T2 sequence (Q43758 1-250 A134P/E112K/K14D/W41A): T1 sequence (Q43758 1-250 A134P/E112K/K14D/W41F) with F41A
Description: as §1, §2, §3

[3] = DHTz stability in PBS containing 10% mouse serum; format: in vitro ADME; conditions: 1 h
Text: A challenge to the development of catalytic methods for turning on the tetrazine ligation was the identification of a DHTz/Tz pair that would be stable in both oxidation states (FIG. 1, panel B). For most redox couples, either the DHTz is too readily oxidized in air (e.g., 1), or the Tz is too reactive toward water and other nucleophiles (e.g., 2). The inventors show here that the dipyridyl DHTz/Tz pair (3/4) has good stability in both states (FIG. 1, panel C). Dihydrotetrazines 3 are highly resistant toward background oxidation in organic solvents, and a number of derivatives have been synthesized and shown stable even to silica gel chromatography. […] Aqueous solutions of 3a were handled in glassware that had been first rinsed with 2.0 mM EDTA in PBS to remove adventitious metal impurities. After standing in the dark at 25° C. in PBS buffer, a solution of 3a was monitored by UV-vis and shown to retain 99 and 96% of the DHTz oxidation state over 30 min and 2.5 hours respectively. […] In PBS containing 10% mouse serum, 90% of 3a was retained in the DHTz oxidation state after 1 h. Analogs of tetrazines 4 have been described previously and used broadly for applications in nuclear medicine and cell imaging. […]

O=C(O)CCCC(=O)Nc1ccc(C2=NNC(c3ccccn3)=NN2)nc1 [compound 15]
rate of catalysis by APEX2 slower than by HRP ([1]; APEX2 versus HRP (FIG. 10D)): approximately 100 × | Initial rate of oxidation of DHT by APEX2 (SEQ ID NO: 1) ([1]; DHT 5 μM): 0.903 +/− 0.026 ×10^−8 M/s | Initial rate of oxidation of DHT by APEX2 (SEQ ID NO: 1) + SOD ([1]; DHT 6 μM): 1.104 +/− 0.028 ×10^−8 M/s | Initial rate of oxidation of DHT by APEX2 (SEQ ID NO: 1) ([1]; DHT 10 μM): 1.286 +/− 0.141 ×10^−8 M/s | Initial rate of oxidation of DHT by APEX2 (SEQ ID NO: 1) + SOD ([1]; DHT 12 μM): 1.831 +/− 0.169 ×10^−8 M/s | Initial rate of oxidation of DHT by APEX2 (SEQ ID NO: 1) ([1]; DHT 15 μM): 1.442 +/− 0.298 ×10^−8 M/s | Initial rate of oxidation of DHT by APEX2 (SEQ ID NO: 1) + SOD ([1]; DHT 15 μM): 1.765 +/− 0.172 ×10^−8 M/s | Initial rate of oxidation of DHT by APEX2 (SEQ ID NO: 1) ([1]; DHT 20 μM): 1.872 +/− 0.028 ×10^−8 M/s | Initial rate of oxidation of DHT by APEX2 (SEQ ID NO: 1) + SOD ([1]; DHT 20 μM): 2.166 +/− 0.201 ×10^−8 M/s | Initial rate of oxidation of DHT by APEX2 (SEQ ID NO: 1) ([1]; DHT 25 μM): 1.628 +/− 0.133 ×10^−8 M/s | Initial rate of oxidation of DHT by APEX2 (SEQ ID NO: 1) + SOD ([1]; DHT 25 μM): 2.937 +/− 0.487 ×10^−8 M/s | Initial rate of oxidation of DHT by APEX2 (SEQ ID NO: 1) ([1]; DHT 30 μM): 1.878 +/− 0.055 ×10^−8 M/s | Initial rate of oxidation of DHT by APEX2 (SEQ ID NO: 1) + SOD ([1]; DHT 30 μM): 2.418 +/− 0.038 ×10^−8 M/s | Initial rate of oxidation of DHT by APEX2 (SEQ ID NO: 1) ([1]; DHT 40 μM): 2.305 +/− 0.101 ×10^−8 M/s | Initial rate of oxidation of DHT by APEX2 (SEQ ID NO: 1) + SOD ([1]; DHT 40 μM): 3.230 +/− 0.348 ×10^−8 M/s | Initial rate of oxidation of DHT by APEX2 (SEQ ID NO: 1) ([1]; DHT 50 μM): 2.445 +/− 0.303 ×10^−8 M/s | Initial rate of oxidation of DHT by APEX2 (SEQ ID NO: 1) + SOD ([1]; DHT 50 μM): 3.305 +/− 0.436 ×10^−8 M/s | Initial rate of oxidation of DHT by APEX2 (SEQ ID NO: 1) ([1]; DHT 60 μM): 2.603 +/− 0.306 ×10^−8 M/s | Initial rate of oxidation of DHT by APEX2 (SEQ ID NO: 1) + SOD ([1]; DHT 60 μM): 4.169 +/− 0.242 ×10^−8 M/s | Initial rate of oxidation of DHT by APEX2 (SEQ ID NO: 1) ([1]; DHT 70 μM): 3.197 +/− 0.025 ×10^−8 M/s | Initial rate of oxidation of DHT by APEX2 (SEQ ID NO: 1) ([1]; DHT 75 μM): 3.460 +/− 0.492 ×10^−8 M/s | Initial rate of oxidation of DHT by APEX2 (SEQ ID NO: 1) + SOD ([1]; DHT 75 μM): 4.196 +/− 0.444 ×10^−8 M/s | Initial rate of oxidation of DHT by APEX2 (SEQ ID NO: 1) ([1]; DHT 85 μM): 3.978 +/− 0.119 ×10^−8 M/s | Initial rate of oxidation of DHT by APEX2 (SEQ ID NO: 1) + SOD ([1]; DHT 85 μM): 4.939 +/− 0.202 ×10^−8 M/s | Initial rate of oxidation of DHT by F41A APEX2 + SOD ([2]; DHT 5 μM): 1.080 +/− 0.113 ×10^−8 M/s | Initial rate of oxidation of DHT by F41A APEX2 + SOD ([2]; DHT 10 μM): 2.625 +/− 0.177 ×10^−8 M/s | Initial rate of oxidation of DHT by F41A APEX2 + SOD ([2]; DHT 15 μM): 2.549 +/− 0.145 ×10^−8 M/s | Initial rate of oxidation of DHT by F41A APEX2 + SOD ([2]; DHT 20 μM): 3.629 +/− 0.413 ×10^−8 M/s | Initial rate of oxidation of DHT by F41A APEX2 + SOD ([2]; DHT 25 μM): 3.863 +/− 0.163 ×10^−8 M/s | Initial rate of oxidation of DHT by F41A APEX2 + SOD ([2]; DHT 30 μM): 5.019 +/− 0.089 ×10^−8 M/s | Initial rate of oxidation of DHT by F41A APEX2 + SOD ([2]; DHT 40 μM): 5.758 +/− 0.855 ×10^−8 M/s | Initial rate of oxidation of DHT by F41A APEX2 + SOD ([2]; DHT 50 μM): 5.978 +/− 0.304 ×10^−8 M/s | Initial rate of oxidation of DHT by F41A APEX2 + SOD ([2]; DHT 60 μM): 7.688 +/− 0.698 ×10^−8 M/s | Initial rate of oxidation of DHT by F41A APEX2 + SOD ([2]; DHT 70 μM): 7.685 +/− 0.869 ×10^−8 M/s | Initial rate of oxidation of DHT by F41A APEX2 + SOD ([2]; DHT 75 μM): 10.059 +/− 0.594 ×10^−8 M/s | Initial rate of oxidation of DHT by F41A APEX2 + SOD ([2]; DHT 85 μM): 12.425 +/− 0.046 ×10^−8 M/s | factor of increase of rate of catalysis versus APEX2 (SEQ ID NO:1) ([2]; F41A APEX2 mutant with SOD): 7

O=C(O)CCC(=O)Nc1ccc(C2=NNC(c3ccccn3)=NN2)nc1 [3a, 4-oxo-4-((6-(6-(pyridin-2-yl)-1,4-dihydro-1,2,4,5-tetrazin-3-yl)pyridin-3-yl)amino)butanoic Acid]
retained in the DHTz oxidation state [3]: 90%
